Measurements from patent US4791118A, “Quinolonecarboxylic acid derivatives and their preparation” (Kyorin Pharmaceutical Co., Ltd., priority 1985, dated 1988).
Converted amounts (≈) assume the structure as drawn.

Tests used:
S. pyogenes 4372 = experiment: MIC, clinical isolates; format: cell-based; conditions: Streptococcus pyogenes; clinical isolate S. pyogenes 4372; 10^6 cells/ml
S. pneumoniae 4288 = experiment: MIC, clinical isolates; format: cell-based; conditions: Streptococcus pneumoniae; clinical isolate S. pneumoniae 4288; 10^6 cells/ml
S. agalactiae 4342 = experiment: MIC, clinical isolates; format: cell-based; conditions: Streptococcus agalactiae; clinical isolate S. agalactiae 4342; 10^6 cells/ml
[1] = system: B. melaninogenicus GAI 0410; experiment: MIC, anaerobic bacteria; conditions: Prevotella intermedia, GAI0410
S. agalactiae 4468 = experiment: MIC, clinical isolates; format: cell-based; conditions: Streptococcus agalactiae; clinical isolate S. agalactiae 4468; 10^6 cells/ml
P. cepacia GIFU 518 = experiment: microbe, parasite or virus in culture; conditions: Burkholderia cepacia, GIFU518
[2] = system: Veillonella parvula KYA 10790; experiment: MIC, anaerobic bacteria; format: cell-based; conditions: KYA10790, Gram -, 10^6 cells/ml
Excerpt: (§1) | Organism (10^6 cells/ml)

B. vulgatus KYA 29327 = experiment: MIC, anaerobic bacteria; format: cell-based; conditions: Phocaeicola vulgatus, KYA29327, Gram -, 10^6 cells/ml
Excerpt: as §1

B. fragilis 25285 = experiment: MIC, anaerobic bacteria; format: cell-based; conditions: Bacteroides fragilis, Gram -, 10^6 cells/ml
Excerpt: as §1

F. nucleatum = experiment: MIC, anaerobic bacteria; format: cell-based; conditions: Fusobacterium nucleatum, Gram -, 10^6 cells/ml
Excerpt: as §1

[3] = system: Fusobacterium mortiferum 4249; experiment: MIC, anaerobic bacteria; format: cell-based; conditions: Gram -, 10^6 cells/ml
Excerpt: as §1

[4] = system: Bacteroides fragilis GM 7000; experiment: MIC, anaerobic bacteria; format: cell-based; conditions: GM7000, Gram -, 10^6 cells/ml
Excerpt: as §1

[5] = system: Peptococcus magnus KY 017; experiment: MIC, anaerobic bacteria; format: cell-based; conditions: Finegoldia magna, KY017, Gram +, 10^6 cells/ml
Excerpt: as §1

Pst. micros UPI 5464-1 = experiment: MIC, anaerobic bacteria; format: cell-based; conditions: Parvimonas micra, UPI54641, Gram +, 10^6 cells/ml
Excerpt: as §1

[6] = system: Clostridium difficile I-E; experiment: MIC, anaerobic bacteria; format: cell-based; conditions: Clostridioides difficile, Gram +, 10^6 cells/ml
Excerpt: as §1

B. distasonis 8503 = experiment: MIC, anaerobic bacteria; format: cell-based; conditions: Parabacteroides distasonis, Gram -, 10^6 cells/ml
Excerpt: as §1

B. fragilis 0558 = experiment: MIC, anaerobic bacteria; format: cell-based; conditions: Bacteroides fragilis, Gram -, 10^6 cells/ml
Excerpt: as §1

E. faecalis 402 = experiment: microbe, parasite or virus in culture; conditions: Enterococcus faecalis
[7] = system: Pseudomonas aeruginosa V-1; experiment: MIC, aerobic bacteria; conditions: V1
S. aureus Smith = experiment: microbe, parasite or virus in culture; conditions: Staphylococcus aureus
[8] = system: Citrobacter freundii IID 976; experiment: MIC, aerobic bacteria; format: cell-based; conditions: IID976, Gram -, 10^6 cells/ml
Excerpt: as §1

E. coli ATCC 10536 = experiment: MIC, aerobic bacteria; format: cell-based; conditions: Escherichia coli, ATCC10536, Gram -, 10^6 cells/ml
Excerpt: as §1

P. mirabilis IID 992 = experiment: MIC, aerobic bacteria; format: cell-based; conditions: Proteus mirabilis, IID992, Gram -, 10^6 cells/ml
Excerpt: as §1

[9] = system: Acinetobacter anitratus IID 876; experiment: MIC, aerobic bacteria; format: cell-based; conditions: Acinetobacter calcoaceticus, IID876, Gram -, 10^6 cells/ml
Excerpt: as §1

[10] = system: Serratia marcescens IID 618; experiment: MIC, aerobic bacteria; format: cell-based; conditions: IID618, Gram -, 10^6 cells/ml
Excerpt: as §1

[11] = system: S. aureus IID 670 (Terajima); experiment: MIC, aerobic bacteria; format: cell-based; conditions: Staphylococcus aureus, IID670, Gram +, 10^6 cells/ml
Excerpt: as §1

S. epidermidis IID 866 = experiment: MIC, aerobic bacteria; format: cell-based; conditions: Staphylococcus epidermidis, IID866, Gram +, 10^6 cells/ml
Excerpt: as §1

[12] = system: Escherichia coli NIHJ JC-2; experiment: MIC, aerobic bacteria; format: cell-based; conditions: NIHJJC2, Gram -, 10^6 cells/ml
Excerpt: as §1

[13] = system: Morganella morganii IID 602; experiment: MIC, aerobic bacteria; format: cell-based; conditions: IID602, Gram -, 10^6 cells/ml
Excerpt: as §1

[14] = system: Proteus vulgaris IFO 3167; experiment: MIC, aerobic bacteria; format: cell-based; conditions: IFO3167, Gram -, 10^6 cells/ml
Excerpt: as §1

[15] = system: Klebsiella pneumoniae KY(GN)6445; experiment: MIC, aerobic bacteria; format: cell-based; conditions: Gram -, 10^6 cells/ml
Excerpt: as §1

E. faecalis 604 = experiment: MIC, clinical isolates; format: cell-based; conditions: Enterococcus faecalis; clinical isolate E. faecalis 604; 10^6 cells/ml
S. pyogenes 4340 = experiment: MIC, clinical isolates; format: cell-based; conditions: Streptococcus pyogenes; clinical isolate S. pyogenes 4340; 10^6 cells/ml
E. lentum GAI 5242 = experiment: microbe, parasite or virus in culture; conditions: Eggerthella lenta, GAI5242
S. pyogenes 3102 = experiment: MIC, clinical isolates; format: cell-based; conditions: Streptococcus pyogenes; clinical isolate S. pyogenes 3102; 10^6 cells/ml
E. coli ML 4707 = experiment: MIC, aerobic bacteria; format: cell-based; conditions: Escherichia coli, ML4707, Gram -, 10^6 cells/ml
S. pneumoniae 2054 = experiment: MIC, clinical isolates; format: cell-based; conditions: Streptococcus pneumoniae; clinical isolate S. pneumoniae 2054; 10^6 cells/ml

SMILES: O=C(O)c1cn(C2CC2)c2c(Cl)c(N3CCC(CNCCF)C3)c(F)cc2c1=O (centres unmarked) [Exp. 1, 8-Chloro-1-cyclopropyl-6-fluoro-7-[3-(2-fluoroethyl)aminomethyl-1-pyrrolidinyl]-1,4-dihydro-4-oxo-3-quinolinecarboxylic acid]
- MIC (S. pyogenes 4372): 0.025 µg/mL (≈ 0.0587 µM)
- MIC (S. pneumoniae 4288): 0.025 µg/mL (≈ 0.0587 µM)
- MIC (S. agalactiae 4342): 0.05 µg/mL (≈ 0.117 µM)
- MIC [1]: 0.1 µg/mL (≈ 0.235 µM)
- MIC (S. agalactiae 4468): 0.025 µg/mL (≈ 0.0587 µM)
- MIC (P. cepacia GIFU 518): 0.78 µg/mL (≈ 1.83 µM)
- MIC [2]: 0.1 µg/mL (≈ 0.235 µM)
- MIC (B. vulgatus KYA 29327): ≤ 0.05 µg/mL
- MIC (B. fragilis 25285): ≤ 0.05 µg/mL
- MIC (F. nucleatum): ≤ 0.05 µg/mL
- MIC [3]: ≤ 0.05 µg/mL
- MIC [4]: ≤ 0.05 µg/mL
- MIC [5]: ≤ 0.05 µg/mL
- MIC (Pst. micros UPI 5464-1): 0.1 µg/mL (≈ 0.235 µM)
- MIC [6]: 0.2 µg/mL (≈ 0.47 µM)
- MIC (B. distasonis 8503): 0.2 µg/mL (≈ 0.47 µM)
- MIC (B. fragilis 0558): ≤ 0.05 µg/mL
- MIC (E. faecalis 402): 0.1 µg/mL (≈ 0.235 µM)
- MIC [7]: 0.39 µg/mL (≈ 0.916 µM)
- MIC (S. aureus Smith): ≤ 0.0063 µg/mL
- MIC [8]: 0.05 µg/mL (≈ 0.117 µM)
- MIC (E. coli ATCC 10536): 0.0125 µg/mL (≈ 0.0294 µM)
- MIC (P. mirabilis IID 992): 0.025 µg/mL (≈ 0.0587 µM)
- MIC [9]: 0.05 µg/mL (≈ 0.117 µM)
- MIC [10]: 0.1 µg/mL (≈ 0.235 µM)
- MIC [11]: ≤ 0.0063 µg/mL
- MIC (S. epidermidis IID 866): 0.0125 µg/mL (≈ 0.0294 µM)
- MIC [12]: 0.0125 µg/mL (≈ 0.0294 µM)
- MIC [13]: 0.1 µg/mL (≈ 0.235 µM)
- MIC [14]: 0.025 µg/mL (≈ 0.0587 µM)
- MIC [15]: 0.05 µg/mL (≈ 0.117 µM)
- MIC (E. faecalis 604): 0.05 µg/mL (≈ 0.117 µM)
- MIC (S. pyogenes 4340): 0.025 µg/mL (≈ 0.0587 µM)
- MIC (E. lentum GAI 5242): 0.1 µg/mL (≈ 0.235 µM)
- MIC (S. pyogenes 3102): 0.025 µg/mL (≈ 0.0587 µM)
- MIC (E. coli ML 4707): 0.0125 µg/mL (≈ 0.0294 µM)
- MIC (S. pneumoniae 2054): 0.025 µg/mL (≈ 0.0587 µM)

SMILES: O=C(O)c1cn(C2CC2)c2c(F)c(N3CCC(CNCCF)C3)c(F)cc2c1=O (centres unmarked) [Exp. 2, 1-Cyclopropyl-7-[3-(2-fluoroethyl)aminomethyl-1-pyrrolidinyl]-6,8-difluoro-1,4-dihydro-4-oxo-3-quinolinecarboxylic acid]
- MIC (S. pyogenes 4372): 0.05 µg/mL (≈ 0.122 µM)
- MIC (S. pneumoniae 4288): 0.05 µg/mL (≈ 0.122 µM)
- MIC (S. agalactiae 4342): 0.05 µg/mL (≈ 0.122 µM)
- MIC [1]: 0.39 µg/mL (≈ 0.953 µM)
- MIC (S. agalactiae 4468): 0.05 µg/mL (≈ 0.122 µM)
- MIC (P. cepacia GIFU 518): 0.78 µg/mL (≈ 1.91 µM)
- MIC [2]: 0.2 µg/mL (≈ 0.489 µM)
- MIC (B. vulgatus KYA 29327): 0.39 µg/mL (≈ 0.953 µM)
- MIC (B. fragilis 25285): 0.39 µg/mL (≈ 0.953 µM)
- MIC (F. nucleatum): 0.2 µg/mL (≈ 0.489 µM)
- MIC [3]: 0.2 µg/mL (≈ 0.489 µM)
- MIC [4]: 0.39 µg/mL (≈ 0.953 µM)
- MIC [5]: ≤ 0.05 µg/mL
- MIC (Pst. micros UPI 5464-1): 0.2 µg/mL (≈ 0.489 µM)
- MIC [6]: 0.78 µg/mL (≈ 1.91 µM)
- MIC (B. distasonis 8503): 0.78 µg/mL (≈ 1.91 µM)
- MIC (B. fragilis 0558): 0.39 µg/mL (≈ 0.953 µM)
- MIC (E. faecalis 402): 0.1 µg/mL (≈ 0.244 µM)
- MIC [7]: 0.39 µg/mL (≈ 0.953 µM)
- MIC (S. aureus Smith): 0.0125 µg/mL (≈ 0.0305 µM)
- MIC [8]: 0.05 µg/mL (≈ 0.122 µM)
- MIC (E. coli ATCC 10536): 0.025 µg/mL (≈ 0.0611 µM)
- MIC (P. mirabilis IID 992): 0.05 µg/mL (≈ 0.122 µM)
- MIC [9]: 0.05 µg/mL (≈ 0.122 µM)
- MIC [10]: 0.2 µg/mL (≈ 0.489 µM)
- MIC [11]: 0.025 µg/mL (≈ 0.0611 µM)
- MIC (S. epidermidis IID 866): 0.025 µg/mL (≈ 0.0611 µM)
- MIC [12]: 0.025 µg/mL (≈ 0.0611 µM)
- MIC [13]: 0.2 µg/mL (≈ 0.489 µM)
- MIC [14]: 0.05 µg/mL (≈ 0.122 µM)
- MIC [15]: 0.05 µg/mL (≈ 0.122 µM)
- MIC (E. faecalis 604): 0.1 µg/mL (≈ 0.244 µM)
- MIC (S. pyogenes 4340): 0.05 µg/mL (≈ 0.122 µM)
- MIC (E. lentum GAI 5242): 0.39 µg/mL (≈ 0.953 µM)
- MIC (S. pyogenes 3102): 0.05 µg/mL (≈ 0.122 µM)
- MIC (E. coli ML 4707): 0.025 µg/mL (≈ 0.0611 µM)
- MIC (S. pneumoniae 2054): 0.05 µg/mL (≈ 0.122 µM)
